Results: the NIST ThermoML archive (doi:10.1007/s10765-012-1352-4)

Assay: xn = mol fraction of the nth substance listed
Conditions: Gas, Loschmidt diffusion cell combined with holoholographic interferometry

[Ne] [neon] + [Ar]
binary diffusion coefficient [m2/s]
Conditions | 100 kPa | 200 kPa | 500 kPa | 1000 kPa
293.15 K, x2 = 0.1 | 3.14e-10 | 1.57e-10 | 6.34e-11 | 3.1e-11
293.15 K, x2 = 0.12 | 3.14e-10 | 1.57e-10 | 6.32e-11 | 3.1e-11
293.15 K, x2 = 0.14 | 3.13e-10 | 1.57e-10 | 6.31e-11 | 3.1e-11
293.15 K, x2 = 0.16 | 3.13e-10 | 1.57e-10 | 6.3e-11 | 3.09e-11
293.15 K, x2 = 0.18 | 3.12e-10 | 1.56e-10 | 6.29e-11 | 3.09e-11
293.15 K, x2 = 0.2 | 3.11e-10 | 1.56e-10 | 6.28e-11 | 3.08e-11
293.15 K, x2 = 0.22 | 3.11e-10 | 1.56e-10 | 6.27e-11 | 3.08e-11
293.15 K, x2 = 0.24 | 3.1e-10 | 1.56e-10 | 6.27e-11 | 3.07e-11
293.15 K, x2 = 0.26 | 3.1e-10 | 1.56e-10 | 6.26e-11 | 3.07e-11
293.15 K, x2 = 0.28 | 3.1e-10 | 1.56e-10 | 6.25e-11 | 3.06e-11
293.15 K, x2 = 0.3 | 3.09e-10 | 1.56e-10 | 6.24e-11 | 3.06e-11
293.15 K, x2 = 0.32 | 3.08e-10 | 1.55e-10 | 6.23e-11 | 3.05e-11
293.15 K, x2 = 0.34 | 3.08e-10 | 1.55e-10 | 6.22e-11 | 3.04e-11
293.15 K, x2 = 0.36 | 3.07e-10 | 1.55e-10 | 6.21e-11 | 3.03e-11
293.15 K, x2 = 0.38 | 3.08e-10 | 1.54e-10 | 6.2e-11 | 3.02e-11
293.15 K, x2 = 0.4 | 3.07e-10 | 1.54e-10 | 6.19e-11 | 3.01e-11
293.15 K, x2 = 0.6 | 3.1e-10 | 1.56e-10 | 6.31e-11 | 3.13e-11
293.15 K, x2 = 0.62 | 3.09e-10 | 1.56e-10 | 6.29e-11 | 3.13e-11
293.15 K, x2 = 0.64 | 3.09e-10 | 1.56e-10 | 6.28e-11 | 3.13e-11
293.15 K, x2 = 0.66 | 3.09e-10 | 1.56e-10 | 6.28e-11 | 3.12e-11
293.15 K, x2 = 0.68 | 3.09e-10 | 1.56e-10 | 6.28e-11 | 3.12e-11
293.15 K, x2 = 0.7 | 3.09e-10 | 1.56e-10 | 6.28e-11 | 3.12e-11
293.15 K, x2 = 0.72 | 3.1e-10 | 1.56e-10 | 6.28e-11 | 3.12e-11
293.15 K, x2 = 0.74 | 3.1e-10 | 1.56e-10 | 6.28e-11 | 3.12e-11
293.15 K, x2 = 0.76 | 3.1e-10 | 1.56e-10 | 6.28e-11 | 3.13e-11
293.15 K, x2 = 0.78 | 3.1e-10 | 1.57e-10 | 6.28e-11 | 3.13e-11
293.15 K, x2 = 0.8 | 3.1e-10 | 1.57e-10 | 6.28e-11 | 3.13e-11
293.15 K, x2 = 0.82 | 3.1e-10 | 1.57e-10 | 6.29e-11 | 3.13e-11
293.15 K, x2 = 0.84 | 3.11e-10 | 1.57e-10 | 6.29e-11 | 3.13e-11
293.15 K, x2 = 0.86 | 3.11e-10 | 1.57e-10 | 6.29e-11 | 3.13e-11
293.15 K, x2 = 0.88 | 3.11e-10 | 1.57e-10 | 6.3e-11 | 3.14e-11
293.15 K, x2 = 0.9 | 3.11e-10 | 1.57e-10 | 6.3e-11 | 3.14e-11
313.15 K, x2 = 0.1 | 3.56e-10 | 1.78e-10 | 7.02e-11 | 3.5e-11
313.15 K, x2 = 0.12 | 3.54e-10 | 1.77e-10 | 7e-11 | 3.49e-11
313.15 K, x2 = 0.14 | 3.53e-10 | 1.77e-10 | 6.99e-11 | 3.49e-11
313.15 K, x2 = 0.16 | 3.52e-10 | 1.77e-10 | 6.98e-11 | 3.48e-11
313.15 K, x2 = 0.18 | 3.52e-10 | 1.76e-10 | 6.97e-11 | 3.47e-11
313.15 K, x2 = 0.2 | 3.51e-10 | 1.76e-10 | 6.96e-11 | 3.47e-11
313.15 K, x2 = 0.22 | 3.51e-10 | 1.76e-10 | 6.95e-11 | 3.46e-11
313.15 K, x2 = 0.24 | 3.49e-10 | 1.75e-10 | 6.94e-11 | 3.45e-11
313.15 K, x2 = 0.26 | 3.49e-10 | 1.75e-10 | 6.92e-11 | 3.44e-11
313.15 K, x2 = 0.28 | 3.48e-10 | 1.75e-10 | 6.91e-11 | 3.44e-11
313.15 K, x2 = 0.3 | 3.47e-10 | 1.74e-10 | 6.89e-11 | 3.42e-11
313.15 K, x2 = 0.32 | 3.47e-10 | 1.74e-10 | 6.88e-11 | 3.41e-11
313.15 K, x2 = 0.34 | 3.46e-10 | 1.74e-10 | 6.86e-11 | 3.4e-11
313.15 K, x2 = 0.36 | 3.46e-10 | 1.74e-10 | 6.84e-11 | 3.39e-11
313.15 K, x2 = 0.38 | 3.45e-10 | 1.73e-10 | 6.82e-11 | 3.37e-11
313.15 K, x2 = 0.4 | 3.44e-10 | 1.73e-10 | 6.79e-11 | 3.35e-11
313.15 K, x2 = 0.6 | 3.52e-10 | 1.75e-10 | 7.09e-11 | 3.52e-11
313.15 K, x2 = 0.62 | 3.51e-10 | 1.75e-10 | 7.08e-11 | 3.51e-11
313.15 K, x2 = 0.64 | 3.51e-10 | 1.75e-10 | 7.07e-11 | 3.5e-11
313.15 K, x2 = 0.66 | 3.5e-10 | 1.75e-10 | 7.06e-11 | 3.5e-11
313.15 K, x2 = 0.68 | 3.5e-10 | 1.75e-10 | 7.06e-11 | 3.5e-11
313.15 K, x2 = 0.7 | 3.5e-10 | 1.75e-10 | 7.05e-11 | 3.5e-11
313.15 K, x2 = 0.72 | 3.5e-10 | 1.75e-10 | 7.05e-11 | 3.5e-11
313.15 K, x2 = 0.74 | 3.49e-10 | 1.75e-10 | 7.05e-11 | 3.5e-11
313.15 K, x2 = 0.76 | 3.49e-10 | 1.75e-10 | 7.06e-11 | 3.5e-11
313.15 K, x2 = 0.78 | 3.49e-10 | 1.75e-10 | 7.06e-11 | 3.5e-11
313.15 K, x2 = 0.8 | 3.49e-10 | 1.75e-10 | 7.06e-11 | 3.5e-11
313.15 K, x2 = 0.82 | 3.49e-10 | 1.75e-10 | 7.06e-11 | 3.5e-11
313.15 K, x2 = 0.84 | 3.49e-10 | 1.76e-10 | 7.07e-11 | 3.5e-11
313.15 K, x2 = 0.86 | 3.5e-10 | 1.76e-10 | 7.07e-11 | 3.5e-11
313.15 K, x2 = 0.88 | 3.51e-10 | 1.76e-10 | 7.07e-11 | 3.51e-11
313.15 K, x2 = 0.9 | 3.51e-10 | 1.76e-10 | 7.08e-11 | 3.51e-11
333.15 K, x2 = 0.1 | 3.99e-10 | 1.97e-10 | 7.82e-11 | 3.91e-11
333.15 K, x2 = 0.12 | 3.97e-10 | 1.97e-10 | 7.8e-11 | 3.9e-11
333.15 K, x2 = 0.14 | 3.95e-10 | 1.96e-10 | 7.79e-11 | 3.89e-11
333.15 K, x2 = 0.16 | 3.94e-10 | 1.96e-10 | 7.77e-11 | 3.88e-11
333.15 K, x2 = 0.18 | 3.93e-10 | 1.95e-10 | 7.76e-11 | 3.87e-11
333.15 K, x2 = 0.2 | 3.91e-10 | 1.95e-10 | 7.74e-11 | 3.86e-11
333.15 K, x2 = 0.22 | 3.91e-10 | 1.95e-10 | 7.72e-11 | 3.86e-11
333.15 K, x2 = 0.24 | 3.89e-10 | 1.94e-10 | 7.7e-11 | 3.85e-11
333.15 K, x2 = 0.26 | 3.89e-10 | 1.94e-10 | 7.69e-11 | 3.84e-11
333.15 K, x2 = 0.28 | 3.87e-10 | 1.93e-10 | 7.67e-11 | 3.83e-11
333.15 K, x2 = 0.3 | 3.86e-10 | 1.93e-10 | 7.65e-11 | 3.82e-11
333.15 K, x2 = 0.32 | 3.86e-10 | 1.93e-10 | 7.63e-11 | 3.81e-11
333.15 K, x2 = 0.34 | 3.84e-10 | 1.92e-10 | 7.6e-11 | 3.8e-11
333.15 K, x2 = 0.36 | 3.83e-10 | 1.91e-10 | 7.57e-11 | 3.79e-11
333.15 K, x2 = 0.38 | 3.83e-10 | 1.91e-10 | 7.53e-11 | 3.77e-11
333.15 K, x2 = 0.4 | 3.8e-10 | 1.9e-10 | 7.48e-11 | 3.75e-11
333.15 K, x2 = 0.6 | 3.87e-10 | 1.94e-10 | 7.82e-11 | 3.91e-11
333.15 K, x2 = 0.62 | 3.85e-10 | 1.94e-10 | 7.81e-11 | 3.91e-11
333.15 K, x2 = 0.64 | 3.84e-10 | 1.94e-10 | 7.8e-11 | 3.9e-11
333.15 K, x2 = 0.66 | 3.85e-10 | 1.94e-10 | 7.8e-11 | 3.9e-11
333.15 K, x2 = 0.68 | 3.85e-10 | 1.94e-10 | 7.79e-11 | 3.9e-11
333.15 K, x2 = 0.7 | 3.85e-10 | 1.94e-10 | 7.79e-11 | 3.89e-11
333.15 K, x2 = 0.72 | 3.86e-10 | 1.93e-10 | 7.79e-11 | 3.89e-11
333.15 K, x2 = 0.74 | 3.85e-10 | 1.94e-10 | 7.8e-11 | 3.89e-11
333.15 K, x2 = 0.76 | 3.86e-10 | 1.94e-10 | 7.8e-11 | 3.9e-11
333.15 K, x2 = 0.78 | 3.86e-10 | 1.94e-10 | 7.8e-11 | 3.9e-11
333.15 K, x2 = 0.8 | 3.86e-10 | 1.94e-10 | 7.8e-11 | 3.9e-11
333.15 K, x2 = 0.82 | 3.86e-10 | 1.94e-10 | 7.81e-11 | 3.9e-11
333.15 K, x2 = 0.84 | 3.86e-10 | 1.94e-10 | 7.81e-11 | 3.9e-11
333.15 K, x2 = 0.86 | 3.86e-10 | 1.94e-10 | 7.82e-11 | 3.9e-11
333.15 K, x2 = 0.88 | 3.86e-10 | 1.94e-10 | 7.82e-11 | 3.91e-11
333.15 K, x2 = 0.9 | 3.86e-10 | 1.94e-10 | 7.82e-11 | 3.91e-11
